Test results: patent publication US11340219B2, “Anti-pY1235-MET immunological binding reagent” (THE UNITED STATES OF AMERICA AS REPRESENTED BY THE …, priority 2016, dated 2022)
Entries after “also recorded” stand apart in the source; their conditions may differ. Where two headings read alike, the source gives them in different places.

What was measured:
[1] = tested on: GTL-16 tumor xenografts; experiment: GTL-16 xenograft tumor growth; format: in vivo, mice
Method: Animal models and drug administration. Athymic nude mice (nu/nu NCr; Animal Production Program, NCI-Frederick) were implanted with the human cancer cell lines U87 (glioblastoma); A549 (lung carcinoma); MDA-MB-231 (breast carcinoma); HT-29 (colon carcinoma); or with GTL-16, MKN45, or SNU5 (all gastric carcinomas, MET-amplified) as described (17). […] Sorafenib was dissolved in DMSO for in vitro studies. […] Tivantinib was administered orally in a PEG 400:20% vitamin E tocopheryl polyethylene glycol succinate solution (60:40) vehicle. Fit-for-purpose MET inhibitor studies.

[2] = target: MET (Homo sapiens, UniProt P08581)
Method: Fit-for-purpose MET inhibitor studies. […] Extracts of core needle biopsies collected 4 h after tivantinib administration on Day 8 were analyzed for MET, pMET, and hypoxia inducible factor 1, alpha subunit (HIF-1α) (21).
MET immunoassay procedure. The full-length MET immunoassay measures the total levels of full-length MET in tumor tissue samples, irrespective of phosphorylation status. […] Wells were blocked for 2 h with 1×PBS, 0.5% mannitol, 0.2% glycine, and 0.2% BSA, and strips were assembled on 96-well plate frames, freeze-dried, and sealed in desiccated pouches (6-month stability). For the immunoassay, 100 μL each of purified rMET calibrator, controls, and tumor lysates (at protein concentrations of 10-50 μg/mL) prepared in assay buffer (1×PBS/Casein [BioFx] containing PhosSTOP, protease inhibitors and 0.1% Triton X-100 [Roche]) were added to the AF276-coated wells. The rMET assay calibrator was prepared for the dynamic range of the assay. Plates were incubated at ambient temperature (25° C.±3° C.) on an orbital shaker (600 rpm) 1 h to capture MET. After three washes with assay buffer, 100 μL/well 200 ng/mL biotin-conjugated mouse monoclonal MET antibody (clone L41G3) was added to the plates and incubated 1 h at 25° C.±3° C., followed by a second wash and the addition of 100 μL/well 200 ng/mL streptavidin poly-HRP conjugate (Pierce). After 30-min incubation with the HRP-conjugate, plates were washed 4 times and 100 μL SuperSignal ELISA Pico Chemiluminescent Substrate (pierce) was added to each well. Plates were read within 10 min using an Infinite 200 Microplate ELISA reader (Tecan, USA). MET immunoassay calibration curves were analyzed on GraphPad Prism and unknown values were calculated using 4-parameter curve fitting.
Three different pMET immunoassays were developed for the PD studies: pY1234/1235-, pY1235-, and pY1356-MET (Supplemental Material). […] The pMET assay calibrators were prepared for the dynamic range of each assay. Assay control samples were prepared by combining GTL-16, SNU5, A549, MKN45, or U87 xenograft tumor lysates to achieve low, medium, and high MET concentrations at 10 to 50 μg/mL total protein concentrations.

[3] = tested on: HIF-1α; experiment: HIF-1α immunoassay in SNU5 xenograft extracts; format: in vivo; conditions: SNU5, day 8, pazopanib 100 mg/kg daily, p<0.05
[4] = tested on: pY1235-MET in MET-expressing cell lines (GTL-16, HT29, A549); experiment: pY1235-MET immunofluorescence staining of treated cancer cell lines; format: cell-based, human; conditions: 100 nM drug, clone 23111 staining, FIG. 1B
Method: MET immunofluorescence analysis. […] Cells were fixed in 10% neutral-buffered formalin (Sigma-Aldrich) for 24 h, pelleted, and then embedded in paraffin. After 5-μm sectioning, antigen retrieval with Bond Epitope Retrieval Solution 2 (at 100° C. for 10 min) and immunofluorescent staining were performed on the Bond-max Autostainer (Leica Biosystems). For antigen detection, 10 μ/mL primary antibody (anti-pY1235-MET, clone 23111) was followed by 10 μg/mL goat anti-rabbit AF488 (Life Technologies). Immunofluorescence microscopy was performed on core needle biopsies of a resected a human HPRC tumor stained with 5 μg/mL anti-full-length MET (clone Met4) followed by 10 μg/mL anti-mouse AF660 (Life Technologies). Image acquisition and analysis were performed on a wide-field fluorescent, confocal microscope (Nikon 90i, Andor Camera, NIS Elements Software).

[5] = tested on: pY1234-MET; experiment: Western blot specificity analysis; format: binding; conditions: FIG. 7A
Method: (§1) Rabbits were selected for splenectomy and B-cells were subsequently fused with the rabbit cell line 240E-W2 to produce hybridomas based on high antiserum binding to phosphorylated synthetic peptide and lower or undetectable binding to the nonphosphorylated synthetic peptide of identical sequence. Specificity of the pY1235-MET antibody (clone 23111) was tested by preincubating the antibody with synthetic MET peptides phosphorylated at Y1235 (99% phosphorylated at Y1235, nonphosphorylated at Y1234, 1% other impurities) or at Y1234, or preincubating with recombinant RON (cytoplasmic domain, Millipore) (FIG. 7A). Only preincubation with the pY1235 peptide blocked binding of the antibody to the MET protein band. Specificity of clone 23111 was further confirmed by Western blotting of a GST-fusion with MET amino acids 912-1390 harboring a Y1235D-specific mutation (N-terminal GST-Y1235D-MET peptide, 76 kDa; CarnaBio USA, Inc) and of a recombinant cytoplasmic domain of RON (FIG. 7B). […] According to the manufacturer's specifications, anti-pY1234/1235-MET (clone D26) can also bind to tyrosine phosphorylated SRC proteins by Western blot.
(§2) Protein concentrations were determined by bicinchoninic acid assay (BCA assay), and cell lysate loads between 25 and 50 μg per well were run on 4% to 20% precast polyacrylamide gradient gels (Bio-Rad Laboratories) for SDS-PAGE at 100 V for up to 2 hours. Proteins separated by gel electrophoresis were transferred to a nitrocellulose membrane using the Mini-PROTEAN Tetra electrophoresis system (Bio-Rad) at 90 V for 4 hours at 2° C. to 8° C. Membranes were blocked in Odyssey blocking buffer (LI-COR) for 1 hour at 25° C.±3° C. Blots were probed first with 1 μg/mL mouse, rabbit, or goat anti-MET monoclonal antibody in Odyssey blocking buffer overnight at 2° C. to 8° C. with slow orbital shaking and then with an IR dye-labeled secondary antibody against mouse, rabbit, or goat antibody (1:5000 in Odyssey blocking buffer; LI-COR) for 1 hour at 25° C.±3° C. with orbital shaking. Blots were visualized using the Odyssey Infrared imager (LI-COR). […]

[6] = target: T1, recombinant Y1235D-MET peptide (N-terminal GST-Y1235D-MET) (Homo sapiens, UniProt P08581, Y1235D); experiment: Western blot specificity analysis; format: binding; conditions: FIG. 7B
T1 construct: a GST-fusion with MET amino acids 912-1390 harboring a Y1235D-specific mutation; purchased CarnaBio USA, Inc
Method: as §1, §2

[7] = target: T2, recombinant cytoplasmic domain of RON (Homo sapiens, UniProt Q04912); experiment: Western blot specificity analysis; format: binding; conditions: FIGS. 7A and 7B
T2 construct: preincubating with recombinant RON (cytoplasmic domain, Millipore); purchased Millipore
T2 sequence (Q04912 979-1400 limits assumed): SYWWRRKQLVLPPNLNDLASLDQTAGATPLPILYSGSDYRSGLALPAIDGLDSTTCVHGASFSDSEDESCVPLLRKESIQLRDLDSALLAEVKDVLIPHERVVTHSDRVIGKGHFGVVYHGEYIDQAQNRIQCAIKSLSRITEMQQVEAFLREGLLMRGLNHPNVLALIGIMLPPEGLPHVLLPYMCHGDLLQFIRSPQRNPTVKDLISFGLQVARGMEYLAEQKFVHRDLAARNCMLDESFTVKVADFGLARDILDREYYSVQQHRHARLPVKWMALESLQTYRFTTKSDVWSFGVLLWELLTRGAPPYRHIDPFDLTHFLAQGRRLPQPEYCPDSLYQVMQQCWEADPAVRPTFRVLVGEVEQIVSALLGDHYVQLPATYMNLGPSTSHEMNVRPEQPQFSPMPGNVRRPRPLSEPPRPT
Method: as §1, §2

[8] = target: pY1235-MET (Homo sapiens, UniProt P08581); experiment: BIAlite-Biosensor interaction analysis of antibody binding affinity; conditions: range of protein concentrations, details not shown
Method: To facilitate bulk production, rabbit monoclonal antibodies (clones 23111 and 7334) were converted into recombinant proteins through transient expression in HEK293 cells (8). The cDNA from rabbit hybridomas was used to clone IgG heavy and light chains in a 7.7 kB ampicillin-resistant mammalian expression vector co-expressing EB oriP, zeocin selection, and CMV promoter for transient expression in HEK293 cells. For mammalian expression plasmids, DNA was prepared using the GenElute XP Maxiprep kit (Sigma-Aldrich) and verified by agarose gel electrophoresis. Recombinant protein production provided typical yields of 100-300 mg/L in suspension cultures. Specificity of antibodies, determined by Western blot using xenograft lysate and rMET protein, was unaffected by this process. To further characterize these MET antibodies, their binding affinities were measured over a range of protein concentrations using interaction analysis performed with a BIAlite-Biosensor (Pharmacia) as previously described (9).

Molecule: C[C@@H](Oc1cc(-c2cnn(C3CCNCC3)c2)cnc1N)c1c(Cl)ccc(F)c1Cl [PF02341066, crizotinib]
- tumor growth ([1]; daily oral 25 mg/kg, by the seventh day of treatment): achieved stasis

Molecule: Cc1[nH]c(/C=C2\C(=O)Nc3ccc(S(=O)(=O)Cc4c(Cl)cccc4Cl)cc32)c(C)c1C(=O)N1CCC[C@@H]1CN1CCCC1 [PHA665752]
- reduction in pY1235-MET:MET ratio ([2]; GTL-16, 25 mg/kg IP, 4 h after first dose): 62%
- reduction in pY1235-MET:MET ratio ([2]; GTL-16, 50 mg/kg IP, 4 h after first dose): 80%
- reduction in pY1235-MET:MET ratio ([2]; GTL-16, 4 h after the first dose (discussion summary)): 60-80%
- pY1356-MET:MET ratio ([2]; GTL-16, PHA665752 after first dose, recovered to normal within 20 h): declined after the first dose
- tumor growth ([1]; 25 and 50 mg/kg/day IP, after 8-10 days of treatment): achieved tumor stasis

Molecule: Cc1ccc(Nc2nccc(N(C)c3ccc4c(C)n(C)nc4c3)n2)cc1S(N)(=O)=O [pazopanib]
- increase in HIF-1α levels [3]: 46%

Molecule: CNC(=O)c1cc(Oc2ccc(NC(=O)Nc3ccc(Cl)c(C(F)(F)F)c3)cc2)ccn1 [sorafenib]
- sensitivity of pY1235-MET plasma membrane staining to drug [4]: not

B1: clone 23111: rabbit monoclonal antibody specific to pY1235-MET; VH SEQ ID NO:1, VL SEQ ID NO:2 (antibody, V domains shown)
VH: QSVEESGGRLVTPGTPLTLTCTVSGFSLSNYAMGWFRQAPGKGLEWIGIISRSGALWYANWANGRFTISKTSTTVDLKITSPTPEDTATYFCARTNYYDGYGGVDAVLTRFDFWGQGTLVTVSSG
VL: ADVVMTQTPSSVEAAVGGTVTIKCQASQSIGGGLSWYQQKAGQPPKLLIYGASTLESGVPSRFKGSGSGTEFTLTISDLECADAATYYCQSNYGSDIRDYGHTFGGGTEVVVKGDPVAPTVLIFPP
- reactivity with MET epitope phosphorylated only at Y1234 [5]: no cross-reactivity; also recorded: undetectable reactivity
- reactivity with Y1235D-MET (tyrosine 1235 replaced by aspartic acid) [6]: no cross-reactivity; also recorded: undetectable cross-reactivity
- cross-reactivity with cytoplasmic domain of RON [7]: no cross-reactivity
- IC50 [8]: 1.2 nM
